From ChEMBL document CHEMBL1743341, “Cytochrome p450 enzymes mechanism based inhibitors: common sub-structures and reactivity” (Curr Drug Metab, 2005)

Legend:
CYP3A4 [1] = target: T1, CYP3A4 (Homo sapiens, UniProt P08684); experiment: (§1) Mechanism based inhibition of human cytochrome P450 3A4; assay type: ADME; details: human
Cytochrome P450 3A4 [2] = target: T2, Cytochrome P450 3A4 (Homo sapiens, UniProt P08684); experiment: as §1; assay type: ADME
CYP3A4 [3] = target: T1, CYP3A4; experiment: (§2) Mechanism based inhibition of human cytochrome P450 3A4 measured by nifedipine oxidation, omeprazole 3-hydroxylation and omeprazole sulfoxydation; assay type: ADME; details: human
Cytochrome P450 3A4 [4] = target: T2, Cytochrome P450 3A4; experiment: as §2; assay type: ADME
Cytochrome P450 3A4 [5] = target: T2, Cytochrome P450 3A4; experiment: Mechanism based inhibition of human cytochrome P450 3A4 measured by testosterone 6-beta hydroxylation; assay type: ADME
Cytochrome P450 3A4 [6] = target: T2, Cytochrome P450 3A4; experiment: Mechanism based inhibition of human cytochrome P450 3A4 measured by lovastatin 6'-beta hydroxylase activity; assay type: ADME
Cytochrome P450 3A4 [7] = target: T2, Cytochrome P450 3A4; experiment: Mechanism based inhibition of human cytochrome P450 3A4 measured in vivo; assay type: ADME, organism-based
Cytochrome P450 2B1 [8] = target: T3, Cytochrome P450 2B1 (Rattus norvegicus, UniProt P00176); experiment: Mechanism based inhibition of rat cytochrome P450 CYP2B1 measured by androstenedione 16-beta-hydroxylation and R- and S- warfarin hydroxylation; assay type: ADME
T3 sequence (P00176 whole entry): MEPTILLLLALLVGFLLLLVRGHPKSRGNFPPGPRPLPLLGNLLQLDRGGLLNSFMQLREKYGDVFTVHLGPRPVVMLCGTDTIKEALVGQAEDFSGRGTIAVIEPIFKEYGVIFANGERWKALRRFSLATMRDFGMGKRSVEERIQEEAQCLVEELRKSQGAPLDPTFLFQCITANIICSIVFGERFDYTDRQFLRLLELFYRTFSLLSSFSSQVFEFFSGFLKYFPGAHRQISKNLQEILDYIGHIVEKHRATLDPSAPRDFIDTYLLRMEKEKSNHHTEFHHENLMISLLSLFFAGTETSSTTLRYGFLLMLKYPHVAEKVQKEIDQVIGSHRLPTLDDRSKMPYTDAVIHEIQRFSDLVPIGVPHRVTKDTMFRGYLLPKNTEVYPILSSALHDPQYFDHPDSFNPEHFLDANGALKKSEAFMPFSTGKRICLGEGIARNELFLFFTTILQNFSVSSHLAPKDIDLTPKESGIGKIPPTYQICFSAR

Cytochrome P450 2E1 [9] = target: T4, Cytochrome P450 2E1 (Homo sapiens, UniProt P05181); experiment: (§3) Mechanism based inhibition of human cytochrome P450 2E1; assay type: ADME
Cytochrome P450 2E1 [10] = target: T4, Cytochrome P450 2E1; experiment: as §3; assay type: ADME; remark: listed apart in the source
Cytochrome P450 3A5 = Cytochrome P450 3A5 (Homo sapiens, UniProt P20815); experiment: Mechanism based inhibition of human cytochrome P450 3A5 measured by testosterone hydroxylation; assay type: ADME
CYP2B4 = target: T5, CYP2B4 (Oryctolagus cuniculus, UniProt P00178); experiment: (§4) Mechanism based inhibition of rabbit cytochrome P450 CYP2B4 measured by 7-EFC O-deethylation activity; assay type: ADME; details: rabbit, probe 7-EFC (O-deethylation)
T5 sequence (P00178 whole entry): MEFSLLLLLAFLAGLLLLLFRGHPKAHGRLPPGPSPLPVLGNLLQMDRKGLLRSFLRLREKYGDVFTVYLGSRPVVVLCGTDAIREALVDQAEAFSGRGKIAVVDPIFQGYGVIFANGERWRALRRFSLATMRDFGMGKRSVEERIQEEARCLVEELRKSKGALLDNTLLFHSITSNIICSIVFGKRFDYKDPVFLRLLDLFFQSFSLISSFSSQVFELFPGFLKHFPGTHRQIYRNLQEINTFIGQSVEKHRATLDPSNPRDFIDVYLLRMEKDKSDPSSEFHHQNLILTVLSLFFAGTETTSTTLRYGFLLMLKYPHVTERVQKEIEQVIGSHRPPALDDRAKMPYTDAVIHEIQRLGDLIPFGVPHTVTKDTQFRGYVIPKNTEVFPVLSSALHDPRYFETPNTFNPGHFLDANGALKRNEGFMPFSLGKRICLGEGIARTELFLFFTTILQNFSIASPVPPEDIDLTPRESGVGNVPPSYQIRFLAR

Cytochrome P450 2B4 [11] = target: T6, Cytochrome P450 2B4 (Oryctolagus cuniculus, UniProt P00178); experiment: as §4; assay type: ADME
T6 sequence (P00178 whole entry): T5 sequence (P00178 whole entry)

Cytochrome P450 2B4 [12] = target: T6, Cytochrome P450 2B4; experiment: Mechanism based inhibition of rabbit cytochrome P450 CYP2B4 partition ratio; assay type: ADME
[13] = target: Cytochrome P450 2E1 (Oryctolagus cuniculus) (UniProt P08682); experiment: Mechanism based inhibition of rabbit cytochrome P450 CYP2E1 measured by 7-EFC O-deethylation activity; details: probe 7-EFC (O-deethylation)
CYP2D6 = CYP2D6 (Homo sapiens, UniProt P10635); experiment: (§5) Mechanism based inhibition of human cytochrome P450 2D6 measured by dextromethorphan O-demethylation; assay type: ADME; details: human, probe dextromethorphan
Cytochrome P450 2D6 = Cytochrome P450 2D6 (Homo sapiens, UniProt P10635); experiment: as §5; assay type: ADME
Cytochrome P450 2A13 = Cytochrome P450 2A13 (Homo sapiens, UniProt Q16696); experiment: Mechanism based inhibition of human cytochrome P450 2A13 measured by coumarin 7-hydroxylation and testosterone 15-hydroxylation; assay type: ADME
CYP1A2 = target: T7, CYP1A2 (Rattus norvegicus, UniProt P04799); experiment: (§6) Mechanism based inhibition of rat cytochrome P450 CYP1A2 measured by 7-methoxyresorufin O-demethylation (MROD); assay type: ADME; details: rat, probe 7-methoxyresorufin (O-demethylation, MROD)
T7 sequence (P04799 whole entry): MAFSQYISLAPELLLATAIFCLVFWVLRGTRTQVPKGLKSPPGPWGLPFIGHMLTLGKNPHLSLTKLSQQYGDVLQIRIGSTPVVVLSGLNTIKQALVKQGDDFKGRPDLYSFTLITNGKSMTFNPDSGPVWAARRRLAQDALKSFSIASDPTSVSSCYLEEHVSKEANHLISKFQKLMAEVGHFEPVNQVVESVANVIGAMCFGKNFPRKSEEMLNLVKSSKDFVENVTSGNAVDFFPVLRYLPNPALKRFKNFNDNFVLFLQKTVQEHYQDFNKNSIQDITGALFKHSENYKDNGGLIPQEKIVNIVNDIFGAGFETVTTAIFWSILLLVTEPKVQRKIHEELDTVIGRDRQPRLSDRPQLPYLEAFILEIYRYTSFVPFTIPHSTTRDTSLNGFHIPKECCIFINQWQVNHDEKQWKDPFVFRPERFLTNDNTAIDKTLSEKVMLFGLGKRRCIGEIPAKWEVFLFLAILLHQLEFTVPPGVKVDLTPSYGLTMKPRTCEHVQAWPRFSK

Cytochrome P450 1A2 = target: T8, Cytochrome P450 1A2 (Rattus norvegicus, UniProt P04799); experiment: as §6; assay type: ADME
T8 sequence (P04799 whole entry): T7 sequence (P04799 whole entry)

CYP2B1 = target: T9, CYP2B1 (Rattus norvegicus, UniProt P00176); experiment: (§7) Mechanism based inhibition of rat cytochrome P450 CYP2B1 measured by 7-pentoxyresorufin […] activity (PROD); assay type: ADME; details: rat, probe 7-pentoxyresorufin ([…], PROD)
T9 sequence (P00176 whole entry): T3 sequence (P00176 whole entry)

Cytochrome P450 2B1 [14] = target: T3, Cytochrome P450 2B1; experiment: as §7; assay type: ADME
Cytochrome P450 2A6 = target: T10, Cytochrome P450 2A6 (Homo sapiens, UniProt P11509); experiment: Mechanism based inhibition of human cytochrome P450 2A6; assay type: ADME
T10 sequence (P11509 whole entry): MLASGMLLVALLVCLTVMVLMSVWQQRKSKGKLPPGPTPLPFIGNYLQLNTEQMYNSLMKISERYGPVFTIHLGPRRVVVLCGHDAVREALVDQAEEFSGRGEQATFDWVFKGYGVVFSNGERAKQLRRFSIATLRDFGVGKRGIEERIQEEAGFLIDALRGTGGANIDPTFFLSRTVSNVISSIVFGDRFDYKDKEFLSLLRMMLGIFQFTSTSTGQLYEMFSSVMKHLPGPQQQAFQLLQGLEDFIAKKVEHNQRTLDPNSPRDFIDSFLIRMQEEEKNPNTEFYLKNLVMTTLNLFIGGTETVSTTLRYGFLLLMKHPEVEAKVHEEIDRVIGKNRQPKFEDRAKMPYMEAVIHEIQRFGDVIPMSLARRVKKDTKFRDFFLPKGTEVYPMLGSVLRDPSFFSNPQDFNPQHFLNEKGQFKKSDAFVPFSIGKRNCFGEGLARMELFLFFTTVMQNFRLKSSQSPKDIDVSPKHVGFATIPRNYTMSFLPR

T4 sequence (P05181 whole entry): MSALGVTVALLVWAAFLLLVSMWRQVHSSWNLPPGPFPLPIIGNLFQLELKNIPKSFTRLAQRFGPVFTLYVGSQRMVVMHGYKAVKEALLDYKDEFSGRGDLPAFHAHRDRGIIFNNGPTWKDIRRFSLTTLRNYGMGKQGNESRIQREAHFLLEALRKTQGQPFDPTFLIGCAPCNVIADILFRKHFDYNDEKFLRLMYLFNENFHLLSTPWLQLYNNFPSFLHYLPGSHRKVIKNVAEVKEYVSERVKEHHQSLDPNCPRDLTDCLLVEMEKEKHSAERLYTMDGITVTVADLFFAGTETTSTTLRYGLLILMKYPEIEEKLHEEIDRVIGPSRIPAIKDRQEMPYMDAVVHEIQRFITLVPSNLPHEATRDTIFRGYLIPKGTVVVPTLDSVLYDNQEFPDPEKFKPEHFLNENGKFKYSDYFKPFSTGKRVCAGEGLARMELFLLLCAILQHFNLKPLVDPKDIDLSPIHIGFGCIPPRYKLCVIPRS
T1 sequence (P08684 whole entry): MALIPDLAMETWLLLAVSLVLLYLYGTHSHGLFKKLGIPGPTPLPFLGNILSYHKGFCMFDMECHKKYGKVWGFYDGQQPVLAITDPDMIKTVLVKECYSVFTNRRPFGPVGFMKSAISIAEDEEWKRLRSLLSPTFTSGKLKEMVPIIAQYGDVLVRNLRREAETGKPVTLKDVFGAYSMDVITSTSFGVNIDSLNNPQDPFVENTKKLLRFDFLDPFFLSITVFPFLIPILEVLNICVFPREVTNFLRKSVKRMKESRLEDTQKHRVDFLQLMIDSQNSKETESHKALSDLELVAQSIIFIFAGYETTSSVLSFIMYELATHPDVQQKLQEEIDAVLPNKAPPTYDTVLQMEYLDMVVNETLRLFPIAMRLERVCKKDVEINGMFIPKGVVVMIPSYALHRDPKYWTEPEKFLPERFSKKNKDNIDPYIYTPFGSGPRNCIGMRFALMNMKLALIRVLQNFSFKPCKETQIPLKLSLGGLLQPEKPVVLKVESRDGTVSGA
T2 sequence (P08684 whole entry): as above
Chain of Cytochrome P450 2A13 (Q16696 whole entry): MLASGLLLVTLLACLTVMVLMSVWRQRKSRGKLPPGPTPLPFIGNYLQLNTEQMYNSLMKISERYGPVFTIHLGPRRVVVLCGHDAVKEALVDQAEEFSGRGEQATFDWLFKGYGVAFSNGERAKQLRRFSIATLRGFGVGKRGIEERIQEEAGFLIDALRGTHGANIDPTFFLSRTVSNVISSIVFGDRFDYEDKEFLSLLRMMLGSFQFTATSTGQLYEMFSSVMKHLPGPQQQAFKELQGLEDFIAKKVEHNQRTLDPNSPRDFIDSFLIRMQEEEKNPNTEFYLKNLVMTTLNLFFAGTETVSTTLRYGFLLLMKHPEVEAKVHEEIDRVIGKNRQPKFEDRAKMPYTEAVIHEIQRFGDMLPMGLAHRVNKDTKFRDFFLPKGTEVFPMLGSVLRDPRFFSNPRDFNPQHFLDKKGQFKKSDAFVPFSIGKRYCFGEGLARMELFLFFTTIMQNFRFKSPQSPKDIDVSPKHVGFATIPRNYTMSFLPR
Chain of Cytochrome P450 3A5 (P20815 whole entry): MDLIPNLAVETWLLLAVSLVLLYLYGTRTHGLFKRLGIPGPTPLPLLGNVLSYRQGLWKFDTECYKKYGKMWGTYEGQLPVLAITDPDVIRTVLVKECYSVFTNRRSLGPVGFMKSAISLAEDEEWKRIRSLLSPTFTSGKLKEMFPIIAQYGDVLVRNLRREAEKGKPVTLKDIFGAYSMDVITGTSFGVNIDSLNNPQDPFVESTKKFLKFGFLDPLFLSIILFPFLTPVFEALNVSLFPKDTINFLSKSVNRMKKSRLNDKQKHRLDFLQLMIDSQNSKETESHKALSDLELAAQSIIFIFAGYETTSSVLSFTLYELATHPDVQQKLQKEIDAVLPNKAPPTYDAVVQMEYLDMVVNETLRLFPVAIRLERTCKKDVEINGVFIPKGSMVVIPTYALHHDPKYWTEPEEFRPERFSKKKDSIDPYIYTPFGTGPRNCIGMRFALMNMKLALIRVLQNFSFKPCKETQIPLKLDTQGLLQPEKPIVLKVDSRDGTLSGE
Chain of Cytochrome P450 2D6 (P10635 whole entry): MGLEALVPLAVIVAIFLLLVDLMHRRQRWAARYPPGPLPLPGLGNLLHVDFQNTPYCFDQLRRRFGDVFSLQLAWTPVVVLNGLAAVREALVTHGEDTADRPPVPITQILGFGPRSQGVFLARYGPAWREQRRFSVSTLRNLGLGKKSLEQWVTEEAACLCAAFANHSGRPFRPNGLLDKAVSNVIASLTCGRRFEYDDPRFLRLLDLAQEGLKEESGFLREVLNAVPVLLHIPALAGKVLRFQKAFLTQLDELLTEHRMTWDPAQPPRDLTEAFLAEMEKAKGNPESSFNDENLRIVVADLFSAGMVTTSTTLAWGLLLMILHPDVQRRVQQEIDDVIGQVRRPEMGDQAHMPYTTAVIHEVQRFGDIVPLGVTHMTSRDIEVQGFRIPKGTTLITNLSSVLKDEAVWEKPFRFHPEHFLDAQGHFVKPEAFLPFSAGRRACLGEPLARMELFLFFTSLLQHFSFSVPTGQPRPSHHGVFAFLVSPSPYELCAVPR
Chain of CYP2D6 (P10635 whole entry): as above
Chain of Cytochrome P450 2E1 (Oryctolagus cuniculus) (P08682 whole entry, looked up): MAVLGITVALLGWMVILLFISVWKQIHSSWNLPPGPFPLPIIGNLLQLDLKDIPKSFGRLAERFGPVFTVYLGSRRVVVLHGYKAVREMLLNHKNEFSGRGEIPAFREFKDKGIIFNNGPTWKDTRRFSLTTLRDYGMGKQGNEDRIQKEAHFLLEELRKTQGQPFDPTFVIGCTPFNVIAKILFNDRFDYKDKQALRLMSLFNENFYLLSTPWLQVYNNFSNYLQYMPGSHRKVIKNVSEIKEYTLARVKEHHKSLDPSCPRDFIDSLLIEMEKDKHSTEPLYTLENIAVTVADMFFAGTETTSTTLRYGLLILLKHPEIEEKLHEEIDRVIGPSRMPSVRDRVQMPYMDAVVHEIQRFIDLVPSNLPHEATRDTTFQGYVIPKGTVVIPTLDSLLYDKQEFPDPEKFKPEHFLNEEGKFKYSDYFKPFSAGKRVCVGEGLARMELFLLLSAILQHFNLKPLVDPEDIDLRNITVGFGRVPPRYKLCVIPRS

## C/C(=C\COc1c2ccoc2cc2oc(=O)ccc12)CCC(O)C(C)(C)O (centres undefined) [DIHYDROXYBERGAMOTTIN]
CYP3A4 [1]
  kinact: 0.00267 s⁻¹
Cytochrome P450 3A4 [2]
  Ki: 59000 nM
CYP3A4 [3]
  kinact: 0.001 s⁻¹
Cytochrome P450 3A4 [4]
  Ki: 5560 nM
Cytochrome P450 3A4 [5]
  mechanism based inhibition: Cytochrome P450 mechanistic inhibitor: PMID 10859150

## CN1CCN(C(=O)N[C@@H](Cc2ccccc2)C(=O)N[C@H](/C=C/S(=O)(=O)c2ccccc2)CCc2ccccc2)CC1 [K-777]
Cytochrome P450 3A4 [6]
  mechanism based inhibition: Cytochrome P450 mechanistic inhibitor: PMID 11038163

## CN(C)c1ccc([C@H]2C[C@]3(C)[C@@H](CC[C@]3(O)CCCO)[C@@H]3CCC4=CC(=O)CCC4=C32)cc1 [ONAPRISTONE]
Cytochrome P450 3A4 [7]
  mechanism based inhibition: Cytochrome P450 mechanistic inhibitor: PMID 9697076

## O=C(NCCc1ccc(Br)cc1)C(F)Cl (centres undefined)
Cytochrome P450 2B1 [8]
  mechanism based inhibition: Cytochrome P450 mechanistic inhibitor: PMID 1971568

## CCN(CC)C(=S)SSC(=S)N(CC)CC
Cytochrome P450 2E1 [9]
  mechanism based inhibition: Cytochrome P450 mechanistic inhibitor: PMID 1664256
Cytochrome P450 2E1 [9]; human
  mechanism based inhibition: Cytochrome P450 mechanistic inhibitor: PMID 10805064
Cytochrome P450 2E1 [10]
  mechanism based inhibition: Cytochrome P450 mechanistic inhibitor: PMID 9695717

## Cc1c(O)cccc1C(=O)N[C@@H](CSc1ccccc1)[C@H](O)CN1C[C@H]2CCCC[C@H]2C[C@H]1C(=O)NC(C)(C)C
Cytochrome P450 3A5
  Ki: 570 nM

## C=C(C)C(CC/C(C)=C/COc1c2ccoc2cc2oc(=O)ccc12)OC(C)(C)C(O)CC/C(C)=C/COc1c2ccoc2cc2oc(=O)ccc12 (centres undefined)
CYP3A4 [3]
  kinact: 0.000833 s⁻¹
Cytochrome P450 3A4 [4]
  Ki: 310 nM
Cytochrome P450 3A4 [5]
  mechanism based inhibition: Cytochrome P450 mechanistic inhibitor: PMID 10859150

## C#CC(C)OC(C)(C)C (centres undefined)
CYP2B4
  kinact: 0.0533 s⁻¹
Cytochrome P450 2B4 [11]
  Ki: 37000 nM
Cytochrome P450 2B4 [11]; rabbit
  mechanism based inhibition: Cytochrome P450 mechanistic inhibitor: PMID 15751959
Cytochrome P450 2B4 [12]
  partition_ratio: 12
[13]
  kinact: 0.002 s⁻¹

## CCN(CC)CCNC(=O)c1cc(Cl)c(N)cc1OC [METOCLOPRAMIDE]
CYP2D6
  kinact: 0.000433 s⁻¹
Cytochrome P450 2D6
  Ki: 960 nM

## COc1c2occc2cc2ccc(=O)oc12 [METHOXSALEN]
Cytochrome P450 2A13
  mechanism based inhibition: Cytochrome P450 mechanistic inhibitor: PMID 15579482

## C#Cc1cc2ccccc2c2ccccc12
CYP1A2
  kinact: 0.000667 s⁻¹
Cytochrome P450 1A2
  Ki: 30 nM
CYP2B1
  kinact: 0.0075 s⁻¹
Cytochrome P450 2B1 [14]
  Ki: 140 nM

## CCN(CC)C(=S)S [DITIOCARB]
Cytochrome P450 2E1 [10]
  mechanism based inhibition: Cytochrome P450 mechanistic inhibitor: PMID 9695717
Cytochrome P450 2A6
  mechanism based inhibition: Cytochrome P450 mechanistic inhibitor: PMID 9695717
